Experimental data from patent US9598433B2, “Hepatitis C virus inhibitors” (BRISTOL-MYERS SQUIBB COMPANY, priority 2012, dated 2017).
Like-named read-outs stand apart in the source and are kept apart here.

Key:
[1] = test system: HCV genotype 1a (H77 strain) replicon in HUH-7 cells; test: HCV replicon luciferase reporter assay, genotype 1a; format: cell-based; details: Hepatitis C virus, 72 h, genotype 1a replicon, 3 days incubation
Method in brief: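 Stable HUH-7 line carrying luciferase-reporter genotype 1a (H77) replicon with adaptive NS3 P1496L and NS5A S2204I mutations; 3.0×10^3 cells/well in 4% FCS, 0.5% DMSO, twenty-point 3-fold titration, 3 days at 37 °C. Renilla luminescence with 7.5 μM EnduRen; EC50 by four-parameter logistic fit; CC50 by multiplexed Cell Titer-Blue.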

[2] = test system: HCV genotype 1b (Con1) replicon in HUH-7 cells; test: HCV replicon luciferase reporter assay, genotype 1b; format: cell-based; details: Hepatitis C virus, 72 h, genotype 1b replicon, 3 days incubation
Method in brief: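 Replication was read as Renilla luciferase signal, using 7.5 μM EnduRen substrate with a 2-h incubation at 37 °C. The signal came from a HUH-7 line constitutively expressing a luciferase-tagged 1b (Con1) replicon carrying S1179I.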

Row | Structure (SMILES) | EC50 ([1]; read-out: LE_1a (EC50, range)) [nM] | EC50 ([2]; read-out: LE_1b (EC50, range)) [nM] | EC50 ([1]; read-out: LE_1a (EC50)) [nM] | EC50 ([2]; read-out: LE_1b (EC50)) [nM]
1 | CC[C@@H]1O[C@H](C)CC/C=C\[C@@H]2C[C@@]2(C(=O)NS(=O)(=O)C2(C)CC2)NC(=O)[C@@H]2C[C@@H](Oc3nccc4c5c(ccc34)OCCO5)CN2C(=O)[C@H]1NC(=O)OC(C)(C)C(C)(F)F [Compound 2609, 3,3-difluoro-2-methylbutan-2-yl ((2R,6S,7S,9R,13aS,14aR,16aS,Z)-2-((2,3-dihydro-[1,4]dioxino[2,3-f]isoquinolin-7-yl)oxy)-7-ethyl-9-methyl-14a-(((1-methylcyclopropyl)sulfonyl)carbamoyl)-5,16-dioxo-2,3,5,6,7,9,10,11,13a,14,14a,15,16,16a-tetradecahydro-1H-cyclopropa[i]pyrrolo[1,2-e][1,5,8]oxadiazacyclopentadecin-6-yl)carbamate] | 1.01 to 5 | 0.51 to 1 | – | –
2 | CC[C@@H]1O[C@H](C)CC/C=C\[C@@H]2C[C@@]2(C(=O)NS(=O)(=O)C2(C)CC2)NC(=O)[C@@H]2C[C@@H](Oc3nccc4cc(OC)ccc34)CN2C(=O)[C@H]1NC(=O)OC(C)(C)C(F)(F)F [Compound 1006] | 1.01 to 5 | 0.1 to 0.5 | – | –
3 | CC[C@@H]1O[C@H](C)CC/C=C\[C@@H]2C[C@@]2(C(=O)NS(=O)(=O)C2(C)CC2)NC(=O)[C@@H]2C[C@@H](Oc3nc4c(c5cc(OC)ccc35)CCCO4)CN2C(=O)[C@H]1NC(=O)OC(C)(C)C(F)(F)F [Compound 2307, 1,1,1-trifluoro-2-methylpropan-2-yl ((2R,6S,7S,9R,13aS,14aR,16aS,Z)-7-ethyl-2-((9-methoxy-2,3-dihydro-1H-pyrano[2,3-c]isoquinolin-6-yl)oxy)-9-methyl-14a-(((1-methylcyclopropyl)sulfonyl)carbamoyl)-5,16-dioxo-2,3,5,6,7,9,10,11,13a,14,14a,15,16,16a-tetradecahydro-1H-cyclopropa[i]pyrrolo[1,2-e][1,5,8]oxadiazacyclopentadecin-6-yl)carbamate] | 0.1 to 0.5 | 0.1 to 0.5 | – | –
4 | COc1cnc(O[C@@H]2C[C@H]3C(=O)N[C@]4(C(=O)NS(=O)(=O)C5(C)CC5)C[C@H]4/C=C\CC[C@@H](C)O[C@@H](C)[C@H](NC(=O)OC(C)(C)C(F)(F)F)C(=O)N3C2)c2cc(F)ccc12 [Compound 2007, 1,1,1-trifluoro-2-methylpropan-2-yl ((2R,6S,7S,9R,13aS,14aR,16aS,Z)-2-((7-fluoro-4-methoxyisoquinolin-1-yl)oxy)-7,9-dimethyl-14a-(((1-methylcyclopropyl)sulfonyl)carbamoyl)-5,16-dioxo-2,3,5,6,7,9,10,11,13a,14,14a,15,16,16a-tetradecahydro-1H-cyclopropa[i]pyrrolo[1,2-e][1,5,8]oxadiazacyclopentadecin-6-yl)carbamate] | 0.51 to 1 | 0.1 to 0.5 | 0.63 | 0.24
5 | COc1ccc2c(O[C@@H]3C[C@H]4C(=O)N[C@]5(C(=O)NS(=O)(=O)C6(CF)CC6)C[C@H]5/C=C\CC[C@@H](C)O[C@@H](C)[C@H](NC(=O)OC(C)(C)C(F)(F)F)C(=O)N4C3)nccc2c1 [Compound 2013, 1,1,1-trifluoro-2-methylpropan-2-yl ((2R,6S,7S,9R,13a5,14aR,16aS,Z)-14a-(((1-(fluoromethyl)cyclopropyl)sulfonyl)carbamoyl)-2-((6-methoxyisoquinolin-1-yl)oxy)-7,9-dimethyl-5,16-dioxo-2,3,5,6,7,9,10,11,13a,14,14a,15,16,16a-tetradecahydro-1H-cyclopropa[i]pyrrolo[1,2-e][1,5,8]oxadiazacyclopentadecin-6-yl)carbamate] | 1.01 to 5 | 0.51 to 1 | – | –
6 | CC[C@@H]1O[C@H](C)CC/C=C\[C@@H]2C[C@@]2(C(=O)NS(=O)(=O)C2(C)CC2)NC(=O)[C@@H]2C[C@@H](Oc3nc4cc(OC)ccc4nc3C(F)(F)F)CN2C(=O)[C@H]1NC(=O)OC(C)(C)C(F)(F)F [Compound 1015, 1,1,1-trifluoro-2-methylpropan-2-yl ((2R,6S,7S,9R,13aS,14aR,16aS,Z)-7-ethyl-2-((7-methoxy-3-(trifluoromethyl)quinoxalin-2-yl)oxy)-9-methyl-14a-(((1-methylcyclopropyl)sulfonyl)carbamoyl)-5,16-dioxo-2,3,5,6,7,9,10,11,13a,14,14a,15,16,16a-tetradecahydro-1H-cyclopropa[i]pyrrolo[1,2-e][1,5,8]oxadiazacyclopentadecin-6-yl)carbamate] | 0.1 to 0.5 | 0.1 to 0.5 | – | –
7 | COc1ccc2c(O[C@@H]3C[C@H]4C(=O)N[C@]5(C(=O)NS(=O)(=O)C6(CF)CC6)C[C@H]5/C=C\CC[C@@H](C)O[C@@H](C)[C@H](NC(=O)OC(C)(C)C(C)(F)F)C(=O)N4C3)nccc2c1 [Compound 2014, 3,3-difluoro-2-methylbutan-2-yl ((2R,6S,7S,9R,13aS,14aR,16aS,Z)-14a-(((1-(fluoromethyl)cyclopropyl)sulfonyl)carbamoyl)-2-((6-methoxyisoquinolin-1-yl)oxy)-7,9-dimethyl-5,16-dioxo-2,3,5,6,7,9,10,11,13a,14,14a,15,16,16a-tetradecahydro-1H-cyclopropa[i]pyrrolo[1,2-e][1,5,8]oxadiazacyclopentadecin-6-yl)carbamate] | 1.01 to 5 | 0.51 to 1 | 2.38 | 0.66
8 | CCOc1cc2ccnc(O[C@@H]3C[C@H]4C(=O)N[C@]5(C(=O)NS(=O)(=O)C6(C)CC6)C[C@H]5/C=C\CC[C@@H](C)O[C@@H](CC)[C@H](NC(=O)OC(C)(C)C(F)F)C(=O)N4C3)c2cc1F [Compound 2615, 1,1-difluoro-2-methylpropan-2-yl ((2R,6S,7S,9R,13 aS,14aR,16aS,Z)-2-((6-ethoxy-7-fluoroisoquinolin-1-yl)oxy)-7-ethyl-9-methyl-14a-(((1-methylcyclopropyl)sulfonyl)carbamoyl)-5,16-dioxo-2,3,5,6,7,9,10,11,13a,14,14a,15,16,16a-tetradecahydro-1H-cyclopropa[i]pyrrolo[1,2-e][1,5,8]oxadiazacyclopentadecin-6-yl)carbamate] | 0.51 to 1 | 0.51 to 1 | – | –
9 | CC[C@@H]1O[C@H](C)CC/C=C\[C@@H]2C[C@@]2(C(=O)NS(=O)(=O)C2(C)CC2)NC(=O)[C@@H]2C[C@@H](Oc3cc(OC)nc4cc(OC)ccc34)CN2C(=O)[C@H]1NC(=O)OC(C)(C)C(F)(F)F [Compound 1019, 1,1,1-trifluoro-2-methylpropan-2-yl ((2R,6S,7S,9R,13aS,14aR,16aS,Z)-2-((2,7-dimethoxyquinolin-4-yl)oxy)-7-ethyl-9-methyl-14a-(((1-methylcyclopropyl)sulfonyl)carbamoyl)-5,16-dioxo-2,3,5,6,7,9,10,11,13a,14,14a,15,16,16a-tetradecahydro-1H-cyclopropa[i]pyrrolo[1,2-e][1,5,8]oxadiazacyclopentadecin-6-yl)carbamate] | 1.01 to 5 | 0.1 to 0.5 | – | –
10 | CC[C@@H]1O[C@H](C)CC/C=C\[C@@H]2C[C@@]2(C(=O)NS(=O)(=O)C2(CF)CC2)NC(=O)[C@@H]2C[C@@H](Oc3nccc4cc(OC)c(F)cc34)CN2C(=O)[C@H]1NC(=O)OC(C)(C)C(F)(F)F [Compound 1012] | 1.01 to 5 | 1.01 to 5 | – | –
11 | CC[C@@H]1O[C@H](C)CC/C=C\[C@@H]2C[C@@]2(C(=O)NS(=O)(=O)C2(CF)CC2)NC(=O)[C@@H]2C[C@@H](Oc3ncc(OC)c4ccccc34)CN2C(=O)[C@H]1NC(=O)OC(C)(C)C(F)(F)F [Compound 1014] | 1.01 to 5 | 1.01 to 5 | – | –
